# In article PMC7747594, “Protease-activated receptor-2 ligands reveal orthosteric and allosteric mechanisms of receptor inhibition” (Communications Biology, 2020):
# Read-outs that look alike come from different tables or passages of the source.
# Legend:
# [1] = tested on: PAR2 stabilised receptor (StaR); experiment: Surface plasmon resonance (SPR) binding, single-cycle kinetics
# Experimental: (§1) The SPR binding experiments were performed on a Biacore S200 optical biosensor unit (GE Healthcare) at 30 °C. Sensor chips Series S NTA (Research grade, GE Healthcare) were equilibrated at room temperature prior to use. The running buffer for protein tethering and subsequent ligand binding experiments was 50 mM HEPES, 250 mM NaCl, 0.1% (w/v) LMNG, 0.005% (w/v) CHS, 0.025% (w/v) CHAPS, pH 7.4, if not stated otherwise. The tethering of PAR2 was performed at a flow rate of 5 µl min^−1. The NTA surface was chosen to allow full control of the steric orientation of the tethered protein and was conditioned by a one-minute injection of a 350 mM EDTA solution (pH 8.3) followed by a one-minute injection of running buffer supplemented with 0.5 mM NiCl2. To allow for a covalent tethering after the initial capture step, the conditioned surface was activated for 7 min with 50 mM NHS and 200 mM EDC. This was immediately followed by an injection of PAR2 in running buffer at a concentration of 80–120 µg ml^−1 with a contact time of 5–10 min to achieve the desired densities of 8000–9000 RU. […] Reference surfaces were prepared accordingly, omitting the injection of protein over the activated reference surface. The subsequent binding experiments were all performed at a flow rate of 30 µl min^−1 and by employing the method of single-cycle kinetics. This approach involves the sequential injection of a compound concentration series without regeneration steps. A contact time of 60 s was selected, which was followed by a 30 min dissociation phase to allow for a proper estimation of the dissociation rate constant. Compounds were dissolved in DMSO to 10 mM and a digital dispenser HP D300 (Tecan) was used to set up the compound concentration series using 8 concentrations with a 2-fold dilution pattern. […] Prior to the analysis of compound binding, three running buffer blanks were injected to equilibrate the instrument. The data collection rate was set to 10 Hz and all experiments were repeated at least four times to allow for error estimations. Due to the low DMSO mismatch (maximum 0.1%) introduced by the compound addition, no solvent correction was required. To evaluate compound binding to the PAR-AZ8838 complex, the antagonist AZ8838 was supplemented into the running buffer at a concentration of 50 µM and the instrument was equilibrated for 1 h before performing the single-cycle kinetic study as described above. Similarly, binding of AZ2429 to the PAR-AZ3451 complex was investigated after addition of 1 µM AZ3451 to the running buffer followed by 1 h equilibrium period, while the addition of 10 µM AZ2429 to the running buffer was required to ensure >99% saturation for single-cycle kinetic study of AZ3451 binding to the PAR2-AZ2429 complex.
# (§2) Prior to the fitting of the data, the reference-subtracted data was further analysed by subtracting a similar single-cycle kinetic experiment containing only buffer injections in order to correct for injection artefacts, systematic noise and instrument drift. This double-referenced data has been fitted using a simple 1:1 interaction model as described by Karlsson et al.[46] in order to extract kinetic and affinity data. All data were expressed as mean ± s.e.m. and further analysed using GraphPad Prism 8. Statistical differences were assessed using student’s t-tests (two-tailed) for data sets of two and one-way ANOVA for data sets of three. Significance was set at ^+p < 0.05, ^++p < 0.01, ^+++p < 0.001, ^++++p < 0.0001 compared to AZ3451, and *p < 0.05, **p < 0.01, ***p < 0.001, ****p < 0.0001 compared to AZ2429.
# PAR4 (F2RL3) = target: T1, PAR4 (F2RL3) (Homo sapiens, UniProt Q96RI0); experiment: β-arrestin recruitment, DiscoverX profiling service, PAR4; format: cell-based
# T1 sequence (Q96RI0 18-385): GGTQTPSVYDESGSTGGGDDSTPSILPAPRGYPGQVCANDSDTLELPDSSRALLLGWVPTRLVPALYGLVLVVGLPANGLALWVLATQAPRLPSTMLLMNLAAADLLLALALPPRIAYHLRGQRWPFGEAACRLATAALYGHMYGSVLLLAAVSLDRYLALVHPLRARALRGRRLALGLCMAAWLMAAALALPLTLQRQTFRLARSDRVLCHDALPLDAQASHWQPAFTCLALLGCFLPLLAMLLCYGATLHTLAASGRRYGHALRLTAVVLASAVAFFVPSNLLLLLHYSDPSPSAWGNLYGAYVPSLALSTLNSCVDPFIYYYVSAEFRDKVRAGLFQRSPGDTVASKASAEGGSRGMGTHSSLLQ
# [2] = target: T2, PAR2 stabilised receptor (StaR) (Homo sapiens, UniProt P55085); experiment: Surface plasmon resonance (SPR) binding, single-cycle kinetics
# T2 sequence (P55085 55-377): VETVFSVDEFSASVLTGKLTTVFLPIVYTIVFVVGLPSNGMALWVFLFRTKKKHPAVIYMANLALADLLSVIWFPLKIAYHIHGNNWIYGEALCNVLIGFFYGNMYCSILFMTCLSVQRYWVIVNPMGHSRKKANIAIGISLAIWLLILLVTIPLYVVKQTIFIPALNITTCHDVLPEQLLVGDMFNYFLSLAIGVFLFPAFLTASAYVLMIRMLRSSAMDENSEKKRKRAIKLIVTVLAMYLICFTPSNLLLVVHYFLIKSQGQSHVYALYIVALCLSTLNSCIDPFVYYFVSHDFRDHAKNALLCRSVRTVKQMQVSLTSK
# Experimental: as §1, §2
# [3] = target: T2, PAR2 stabilised receptor (StaR); experiment: as above; conditions: n of 2, earlier manuscript version quoted by reviewer
# [4] = target: T2, PAR2 stabilised receptor (StaR); conditions: SPR, previously reported; cited from earlier work
smiles,measurement,setting,value
CNC(=O)[C@H]1CC[C@@H](NC(=O)[C@H](CC2CCCCC2)NC(=O)c2cn(Cc3ccccc3)nn2)c2ccccc21 [AZ2429],association kinetics slower than AZ3451,[1]; SPR,around 100 fold
same,dissociation rate decreased relative to AZ3451,[1]; SPR,5 fold
same,weaker affinity than AZ3451,[1]; SPR,10 fold
same,ka,"[1]; apo-PAR2, 30 °C",1.5 ± 0.1 × 10^4 (n = 4) M^−1 s^−1
same,pKD,"[1]; apo-PAR2, 30 °C",6.89 ± 0.03 (n = 4)
same,residence time,"[1]; apo-PAR2, 30 °C",523 ± 50 (n = 4) s
same,Max Response,"PAR4 (F2RL3); Arrestin, Agonist format, F2RL3",3.8%
same,EC50,"PAR4 (F2RL3); Arrestin, Agonist format, F2RL3, read-out: RC50 (EC50)",> 50 µM
same,Max Response,"PAR4 (F2RL3); Arrestin, Antagonist format, F2RL3",2.3%
same,IC50,"PAR4 (F2RL3); Arrestin, Antagonist format, F2RL3, read-out: RC50 (IC50)",> 50 µM
same,activity against PAR4 in β-arrestin-2 recruitment assay,PAR4 (F2RL3); DiscoverX profiling service,No AZ2429 activity was detected
C[C@@H](C1CCCCC1)n1c(-c2cc3c(cc2Br)OCO3)nc2cc(C(=O)Nc3ccc(C#N)cc3)ccc21 [AZ3451],reduction in affinity in presence of saturating AZ8838,[2]; SPR,3 fold
same,residence time,"[2]; SPR, apo-PAR2",about 2 min
same,ka,"[2]; apo-PAR2, 30 °C",1.1 ± 0.6 × 10^6 (n = 4) M^−1 s^−1
same,pKD,"[2]; apo-PAR2, 30 °C",7.96 ± 0.04 (n = 4)
same,residence time,"[2]; apo-PAR2, 30 °C",116 ± 68 (n = 4) s
same,Kd,[3],0.014 µM
CCCc1cc(F)ccc1C(O)c1ncc[nH]1 (stereo not drawn) [AZ8838],residence time,[4],about 84 min
